Consider five compounds from patent publication US20240216383A1, “FORMULATIONS AND METHODS FOR TREATING ERECTILE DYSFUNCTION” (Strategic Drug Solutions, Inc., priority 2020, published 2024).

Each structure is given as a SMILES string. Values after ≈ are worked out from the molar mass of the structure shown. Counter-ions that a name gives are not always drawn. Like-named read-outs stand apart in the source and are kept apart here.

The conditions of series [1]: cited from earlier work; for half-life: oral, terminal half-life.
Series [2] is described as follows: Saturated solubility of sildenafil in water and organic-aqueous solvents (shake flask, HPLC). It is filed as physicochemical. The settings on record: for solubility: water, thermodynamic from solid. The source says: Afterwards the solution was filtered using the VWR 0.2 mcron filter.
The conditions of series [3]: cited from earlier work.
The conditions of series [4]: cited from earlier work. The source holds these as a separate data set.
Series [5] in a line: Saturated solubility of vardenafil API in water and organic-aqueous solvents (shake flask, HPLC). Type of series: physicochemical. Conditions: for solubility: water, pH 4, aqueous buffer, thermodynamic from solid, pH4. As to the method:
For screening of various organic solvents, the solubility of vardenafil API in different % ethanol-aqueous mixtures was first investigated and compared to solubility in pure water. As disclosed herein, the solutions were prepared by the “shake flask” method. Briefly, increasing amounts of vardenafil API were added to different mixtures until saturation. The saturated organic-aqueous mixtures were adjusted for pH (at the range pH 3.5-7.5) with the use of a pH meter. The saturated solution was shaken slowly with a magnetic stirrer at room temperature or shaken rapidly several times a day for 24 hours or longer, up to 3 days. Afterwards, the solutions were filtered using the VWR 0.2 micron filter. The filtrate was then used for inspection of clarity and concentration was determined by HPLC. In addition, the saturated solubility of vardenafil various organic-aqueous solution, e.g., in glycerin (glycerol), polyethylene glycol 400 (PEG) and combination of two organic solvents were investigated. Vardenafil solubility in some other representative organic-aqueous solutions were also investigated.
The standard curves were prepared in MeOH and mixed with PBS so that the analytical matrices were the same.

The nature of series [6]: Vardenafil permeability (Papp) and flux (Jss) by PAMPA. It is filed as in vitro ADME. The source says:
As disclosed herein, the permeability of vardenafil API in different solvents at room temperature and atmospheric pressure was screened using in vitro PAMPA. The PAMPA predicts passive absorption of drugs and is suitable for studies with many solutions including ethanol (up to concentration of 30%)(22-24). The unit of measurement is the apparent permeability (Papp) obtained at steady state, expressed as cm/second. Also another associated measurement is the maximum flux (Jss) at a particular pH, expressed as the quantity of drug across the unit area per sec, is calculated from the Papp and saturated solubility. […]
Apparent permeability coefficient (Papp) determination, expressed as cm/sec, was calculated based on the following equation at steady state (24) where • VD=volume in donor chamber • VA=volume in acceptor chamber • A=effective area of the membrane (PAMPA: 0.3 cm^2) • t=duration of the permeability study • CA=drug concentration in the acceptor well at the end of the study • CE=equilibrium concentration in both wells, and […]
Steady state flux (Jss). The Jss, expressed as ug/sec/cm^2, was calculated based on the following equation where • CD=loading concentration in the donor chamber […]

In the case of `CCCc1nc(C)c2c(=O)[nH]c(-c3cc(S(=O)(=O)N4CCNCC4)ccc3OCC)nn12` [MI metabolite], in series [1] (metabolite of vardenafil), the “share of total pharmacologic activity” value is reported as “about 7%”.
On to `CCCc1nn(C)c2c(=O)[nH]c(-c3cc(S(=O)(=O)N4CCN(C)CC4)ccc3OCC)nc12` [sildenafil], for which the aqueous solubility in series [2] (sildenafil, pHmax 4.2) stood at 3540 µg/mL (≈ 7.46 mM). Besides, the solubility in series [2] (pH 4, aqueous buffer, read-out: aqueous saturated solubility) is below 5000 µg/mL; in series [2] (pH 4.55, aqueous buffer, read-out: aqueous solubility) it was 3340 µg/mL (≈ 7.04 mM). Also, the log partition coefficient (log P) in series [3] is listed as 2.7. Also, the pKa in series [3] (vardenafil: 7.15 mostly basic, 9.86 mostly acidic) is 7.2. In series [1] (oral administration), the absolute bioavailability result is on record as “about 41%”. In series [1] (oral administration), the “mean time (Tmax) for maximum plasma concentration” value (from here on “mean time (Tmax)”) is reported as “about 60 min”. In addition, the half-life result in series [1] is “about 4 h”. Further, the solubility in water result in series [4] (pH 3-4) was “about 7.0 mg/ml”; in series [4] (pH 5) it was around 2100 µg/mL (≈ 4.42 mM); in series [4] (pH 7), around 30 µg/mL (≈ 0.0632 mM).
`CN1CC(=O)N2[C@H](c3ccc4c(c3)OCO4)c3[nH]c4ccccc4c3C[C@@H]2C1=O` [tadalafil]: the “mean time (Tmax)” value in series [1] (following a single dose) is on record as “about 2 h”. For the same compound, the absolute bioavailability in series [1] (oral administration) is at most 80%. Moreover, the half-life entry in series [1] is recorded as “about 17.5 h”.
Turning to `CCCc1nc(C)c2c(=O)[nH]c(-c3cc(S(=O)(=O)N4CCN(CC)CC4)ccc3OCC)nn12` [vardenafil API, vardenafil hydrochloride trihydrate], the time until precipitation in series [5] (solubilized in 12% alcohol) was at most 24 h. The solubility in series [5] (read-out: mean saturated solubility in water) was below 20000 µg/mL.
Regarding `CCCc1nc(C)c2c(=O)[nH]c(-c3cc(S(=O)(=O)N4CCN(CC)CC4)ccc3OCC)nn12` [vardenafil], in series [3], the log partition coefficient (log P) is listed as 3.64. Besides, in series [1] (oral administration), the absolute bioavailability entry is “about 15%”. Moreover, the “mean time (Tmax)” value in series [1] (oral administration) is listed as “about 60 min”. For the same compound, the solubility entry in series [4] (pH 1) is “about 8.8 g/L”; in series [4] (pH 2) it was around 3000 µg/mL (≈ 6.14 mM); in series [4] (pH 3) it was around 1600 µg/mL (≈ 3.27 mM); in series [4] (pH 4), around 880 µg/mL (≈ 1.8 mM); in series [4] (pH 5), around 160 µg/mL (≈ 0.327 mM); in series [4] (pH 6) it was around 19 µg/mL (≈ 0.0389 mM). Moreover, in series [5] (read-out: V(ssol)pHmax, aqueous saturated solubility at pHmax), the solubility is 18200 µg/mL. The aqueous solubility result in series [4] (pH 4-7) was “less than 2 mg/ml”. The JsspHmax in series [6] (vardenafil aqueous, pH4) is 7.74 E-05 ug/s/cm^2. In addition, in series [6] (vardenafil, Solmin 20 mg/ml, IN dose 2 mg/nostril, pHmax pH4), the “Jss(ref)” value is reported as 8.5E-05 ug/s/cm^2.
